In data set [1] the target is Kappa-type opioid receptor (Homo sapiens, UniProt P41145).
Data set [2] deals with Delta-type opioid receptor (Homo sapiens, UniProt P41143).
The target in data set [3] is T1, Muscarinic acetylcholine receptor M2 (Homo sapiens, UniProt P08172).
T1 sequence (P08172 whole entry): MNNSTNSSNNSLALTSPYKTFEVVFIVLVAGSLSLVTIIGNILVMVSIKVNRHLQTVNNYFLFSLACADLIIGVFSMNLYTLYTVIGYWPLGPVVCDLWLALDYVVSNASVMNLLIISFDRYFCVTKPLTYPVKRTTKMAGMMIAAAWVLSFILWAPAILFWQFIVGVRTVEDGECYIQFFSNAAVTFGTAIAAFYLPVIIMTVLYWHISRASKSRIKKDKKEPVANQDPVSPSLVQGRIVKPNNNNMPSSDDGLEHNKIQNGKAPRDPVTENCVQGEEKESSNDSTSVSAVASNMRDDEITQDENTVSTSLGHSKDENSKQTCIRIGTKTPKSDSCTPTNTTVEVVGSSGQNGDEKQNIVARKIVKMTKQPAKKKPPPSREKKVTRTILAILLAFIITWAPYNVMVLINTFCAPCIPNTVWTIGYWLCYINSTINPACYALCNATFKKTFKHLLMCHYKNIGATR
The data set is classed as functional, cell-based.

The target in data set [4] is Voltage-gated inwardly rectifying potassium channel KCNH2 (Homo sapiens, UniProt Q12809). It counts as functional.
The target of data set [5] is T2, Alpha-2C adrenergic receptor (Homo sapiens, UniProt P18825).
T2 sequence (P18825 whole entry): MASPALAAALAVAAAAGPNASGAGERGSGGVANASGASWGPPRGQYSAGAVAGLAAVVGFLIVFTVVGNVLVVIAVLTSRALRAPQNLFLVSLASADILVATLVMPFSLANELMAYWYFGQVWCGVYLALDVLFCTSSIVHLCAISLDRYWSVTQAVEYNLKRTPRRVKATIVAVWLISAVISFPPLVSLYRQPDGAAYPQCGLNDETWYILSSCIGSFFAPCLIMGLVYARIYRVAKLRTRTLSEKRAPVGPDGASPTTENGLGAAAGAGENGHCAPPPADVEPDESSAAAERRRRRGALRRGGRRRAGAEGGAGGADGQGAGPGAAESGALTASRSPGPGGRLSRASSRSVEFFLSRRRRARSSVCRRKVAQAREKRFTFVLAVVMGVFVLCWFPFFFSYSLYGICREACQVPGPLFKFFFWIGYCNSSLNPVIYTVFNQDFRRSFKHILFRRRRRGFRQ
It counts as functional.

For data set [6], the target named is Sodium-dependent dopamine transporter (Homo sapiens, UniProt Q01959).
The target of data set [7] is T3, 5-hydroxytryptamine receptor 2C (Homo sapiens, UniProt P28335).
T3 sequence (P28335 whole entry): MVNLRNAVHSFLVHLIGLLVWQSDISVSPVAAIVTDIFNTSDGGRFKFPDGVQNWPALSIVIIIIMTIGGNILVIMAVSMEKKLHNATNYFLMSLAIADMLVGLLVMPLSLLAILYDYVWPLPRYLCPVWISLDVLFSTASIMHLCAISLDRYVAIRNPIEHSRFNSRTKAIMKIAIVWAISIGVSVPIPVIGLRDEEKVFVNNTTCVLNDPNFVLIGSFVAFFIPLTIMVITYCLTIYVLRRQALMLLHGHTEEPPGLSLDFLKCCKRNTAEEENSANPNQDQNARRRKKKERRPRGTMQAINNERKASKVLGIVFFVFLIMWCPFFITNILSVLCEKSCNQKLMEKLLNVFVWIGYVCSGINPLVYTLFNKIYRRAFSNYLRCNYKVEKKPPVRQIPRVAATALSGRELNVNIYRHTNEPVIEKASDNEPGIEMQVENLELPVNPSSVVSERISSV

For data set [8], the target named is 5-hydroxytryptamine receptor 2B (Homo sapiens, UniProt P41595). The data set is classed as functional, cell-based.
Data set [9] deals with Histamine H3 receptor (Homo sapiens, UniProt Q9Y5N1).
Data set [10] concerns the target T4, Neuropeptide Y receptor type 1 (Homo sapiens, UniProt P25929).
T4 sequence (P25929 whole entry): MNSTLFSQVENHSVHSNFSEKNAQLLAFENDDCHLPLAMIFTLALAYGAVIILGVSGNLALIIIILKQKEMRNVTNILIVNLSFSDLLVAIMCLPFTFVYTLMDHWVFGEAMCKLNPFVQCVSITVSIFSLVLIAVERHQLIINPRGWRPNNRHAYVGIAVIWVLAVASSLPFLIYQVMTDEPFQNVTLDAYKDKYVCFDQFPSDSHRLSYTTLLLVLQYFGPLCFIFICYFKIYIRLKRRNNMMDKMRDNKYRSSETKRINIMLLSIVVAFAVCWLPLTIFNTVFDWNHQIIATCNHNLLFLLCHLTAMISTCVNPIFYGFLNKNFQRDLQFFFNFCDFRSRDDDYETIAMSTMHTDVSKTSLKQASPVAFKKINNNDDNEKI

Data set [11] addresses T5, Muscarinic acetylcholine receptor M1 (Homo sapiens, UniProt P11229).
T5 sequence (P11229 whole entry): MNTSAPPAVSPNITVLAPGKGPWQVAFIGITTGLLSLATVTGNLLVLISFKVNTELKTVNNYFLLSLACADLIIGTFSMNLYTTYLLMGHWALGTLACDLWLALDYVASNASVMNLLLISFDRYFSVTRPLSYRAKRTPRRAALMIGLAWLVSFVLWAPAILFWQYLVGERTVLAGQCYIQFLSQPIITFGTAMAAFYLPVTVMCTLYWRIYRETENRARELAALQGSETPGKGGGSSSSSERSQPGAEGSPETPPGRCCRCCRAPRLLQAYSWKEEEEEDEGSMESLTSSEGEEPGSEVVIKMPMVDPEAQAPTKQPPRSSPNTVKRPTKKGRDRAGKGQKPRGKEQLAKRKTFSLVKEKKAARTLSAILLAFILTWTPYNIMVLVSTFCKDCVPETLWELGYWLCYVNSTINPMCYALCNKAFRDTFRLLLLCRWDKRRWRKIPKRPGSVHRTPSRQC
It counts as functional.

For data set [12], the target named is Vasopressin V1a receptor (Homo sapiens, UniProt P37288).
Also: assay procedure not described here.

Sequence of 5-hydroxytryptamine receptor 2B (P41595 whole entry): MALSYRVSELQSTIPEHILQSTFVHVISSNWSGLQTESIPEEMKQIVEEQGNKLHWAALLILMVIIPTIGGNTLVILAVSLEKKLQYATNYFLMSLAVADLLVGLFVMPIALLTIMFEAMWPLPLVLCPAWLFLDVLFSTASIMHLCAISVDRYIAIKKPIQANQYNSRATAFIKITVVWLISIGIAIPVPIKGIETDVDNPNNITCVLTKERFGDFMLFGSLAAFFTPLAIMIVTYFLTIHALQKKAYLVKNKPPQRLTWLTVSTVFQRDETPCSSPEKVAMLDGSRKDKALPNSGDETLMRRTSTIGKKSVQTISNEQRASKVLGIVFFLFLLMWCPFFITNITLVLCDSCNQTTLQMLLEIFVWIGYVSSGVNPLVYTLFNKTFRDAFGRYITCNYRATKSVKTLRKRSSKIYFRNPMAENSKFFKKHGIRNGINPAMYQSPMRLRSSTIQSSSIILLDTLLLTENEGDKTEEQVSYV
Sequence of Sodium-dependent dopamine transporter (Q01959 whole entry): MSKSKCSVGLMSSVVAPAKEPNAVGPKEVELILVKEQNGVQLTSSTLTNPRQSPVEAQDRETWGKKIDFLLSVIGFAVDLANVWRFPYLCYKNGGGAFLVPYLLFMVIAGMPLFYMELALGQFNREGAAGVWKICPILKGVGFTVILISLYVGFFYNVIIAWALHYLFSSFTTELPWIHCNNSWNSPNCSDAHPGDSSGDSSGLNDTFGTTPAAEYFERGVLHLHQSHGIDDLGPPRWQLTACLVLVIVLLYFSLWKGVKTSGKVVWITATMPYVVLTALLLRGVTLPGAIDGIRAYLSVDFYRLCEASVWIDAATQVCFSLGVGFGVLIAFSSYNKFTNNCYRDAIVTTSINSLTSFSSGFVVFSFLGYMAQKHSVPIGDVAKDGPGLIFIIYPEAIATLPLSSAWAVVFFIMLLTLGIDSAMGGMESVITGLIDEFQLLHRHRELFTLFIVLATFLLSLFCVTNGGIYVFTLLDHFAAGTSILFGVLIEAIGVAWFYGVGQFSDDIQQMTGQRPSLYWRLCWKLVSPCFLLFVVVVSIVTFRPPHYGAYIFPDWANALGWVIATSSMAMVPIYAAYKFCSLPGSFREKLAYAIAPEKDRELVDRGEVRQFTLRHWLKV
Sequence of Histamine H3 receptor (Q9Y5N1 whole entry): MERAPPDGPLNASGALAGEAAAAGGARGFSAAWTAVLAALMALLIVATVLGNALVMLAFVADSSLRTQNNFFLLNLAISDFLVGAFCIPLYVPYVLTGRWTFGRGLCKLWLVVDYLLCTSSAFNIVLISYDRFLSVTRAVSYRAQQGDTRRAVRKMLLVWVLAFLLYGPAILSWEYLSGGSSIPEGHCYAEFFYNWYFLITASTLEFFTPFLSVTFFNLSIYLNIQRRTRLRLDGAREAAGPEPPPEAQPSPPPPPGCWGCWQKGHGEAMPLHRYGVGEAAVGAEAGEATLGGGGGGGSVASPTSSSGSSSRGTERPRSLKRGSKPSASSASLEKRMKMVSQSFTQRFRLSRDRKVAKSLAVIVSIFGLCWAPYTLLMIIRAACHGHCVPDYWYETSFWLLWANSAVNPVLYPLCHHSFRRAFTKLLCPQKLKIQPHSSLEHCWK
Sequence of Voltage-gated inwardly rectifying potassium channel KCNH2 (Q12809 whole entry): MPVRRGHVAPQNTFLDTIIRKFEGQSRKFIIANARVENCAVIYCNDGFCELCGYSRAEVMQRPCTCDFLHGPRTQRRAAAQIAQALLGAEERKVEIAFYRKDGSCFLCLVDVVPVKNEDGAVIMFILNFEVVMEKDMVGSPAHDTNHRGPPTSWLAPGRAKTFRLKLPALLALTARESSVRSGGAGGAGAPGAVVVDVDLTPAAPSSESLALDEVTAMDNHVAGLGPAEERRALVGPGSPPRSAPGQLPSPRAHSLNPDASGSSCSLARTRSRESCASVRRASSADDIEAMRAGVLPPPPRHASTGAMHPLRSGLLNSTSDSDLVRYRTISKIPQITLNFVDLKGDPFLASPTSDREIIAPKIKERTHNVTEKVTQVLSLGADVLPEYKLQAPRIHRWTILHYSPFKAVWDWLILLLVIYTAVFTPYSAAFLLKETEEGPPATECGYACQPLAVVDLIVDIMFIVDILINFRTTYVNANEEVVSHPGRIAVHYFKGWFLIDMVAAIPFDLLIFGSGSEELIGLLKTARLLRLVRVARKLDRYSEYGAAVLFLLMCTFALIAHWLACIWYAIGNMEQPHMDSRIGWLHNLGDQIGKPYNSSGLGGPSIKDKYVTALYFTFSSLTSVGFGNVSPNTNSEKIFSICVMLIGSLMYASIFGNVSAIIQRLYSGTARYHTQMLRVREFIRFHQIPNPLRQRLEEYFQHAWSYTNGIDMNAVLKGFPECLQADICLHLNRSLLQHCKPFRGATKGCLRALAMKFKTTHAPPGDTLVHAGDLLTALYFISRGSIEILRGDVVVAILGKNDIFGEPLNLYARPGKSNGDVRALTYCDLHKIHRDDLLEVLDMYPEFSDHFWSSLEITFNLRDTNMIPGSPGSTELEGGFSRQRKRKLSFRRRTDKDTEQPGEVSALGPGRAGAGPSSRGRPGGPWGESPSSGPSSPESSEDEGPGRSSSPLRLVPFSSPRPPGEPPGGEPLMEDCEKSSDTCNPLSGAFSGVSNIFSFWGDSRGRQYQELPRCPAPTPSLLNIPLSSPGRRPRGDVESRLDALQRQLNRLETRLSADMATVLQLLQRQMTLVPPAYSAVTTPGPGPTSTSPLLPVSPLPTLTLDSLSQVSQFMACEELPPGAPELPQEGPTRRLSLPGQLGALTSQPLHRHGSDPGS
Sequence of Vasopressin V1a receptor (P37288 whole entry): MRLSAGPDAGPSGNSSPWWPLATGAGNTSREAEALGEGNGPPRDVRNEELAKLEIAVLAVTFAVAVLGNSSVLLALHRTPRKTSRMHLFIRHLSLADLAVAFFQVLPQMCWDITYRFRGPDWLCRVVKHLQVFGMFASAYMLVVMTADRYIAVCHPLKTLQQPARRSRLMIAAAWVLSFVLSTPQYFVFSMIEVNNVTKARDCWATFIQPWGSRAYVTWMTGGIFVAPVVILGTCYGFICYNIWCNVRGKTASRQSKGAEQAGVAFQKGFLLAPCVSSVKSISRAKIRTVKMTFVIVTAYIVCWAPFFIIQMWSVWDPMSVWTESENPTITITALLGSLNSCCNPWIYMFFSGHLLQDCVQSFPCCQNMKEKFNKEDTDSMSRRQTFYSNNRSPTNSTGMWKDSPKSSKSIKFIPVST
Sequence of Delta-type opioid receptor (P41143 whole entry): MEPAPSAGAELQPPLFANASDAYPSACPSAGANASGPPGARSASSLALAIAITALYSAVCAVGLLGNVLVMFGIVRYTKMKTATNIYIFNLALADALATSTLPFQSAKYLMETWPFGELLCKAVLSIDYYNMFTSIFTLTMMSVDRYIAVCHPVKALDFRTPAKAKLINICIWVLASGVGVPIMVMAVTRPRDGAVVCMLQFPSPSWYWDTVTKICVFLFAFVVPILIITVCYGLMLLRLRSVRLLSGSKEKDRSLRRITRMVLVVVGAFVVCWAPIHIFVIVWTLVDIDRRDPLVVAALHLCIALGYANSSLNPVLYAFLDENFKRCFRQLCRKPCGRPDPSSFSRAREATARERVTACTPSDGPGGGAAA
Sequence of Kappa-type opioid receptor (P41145 whole entry): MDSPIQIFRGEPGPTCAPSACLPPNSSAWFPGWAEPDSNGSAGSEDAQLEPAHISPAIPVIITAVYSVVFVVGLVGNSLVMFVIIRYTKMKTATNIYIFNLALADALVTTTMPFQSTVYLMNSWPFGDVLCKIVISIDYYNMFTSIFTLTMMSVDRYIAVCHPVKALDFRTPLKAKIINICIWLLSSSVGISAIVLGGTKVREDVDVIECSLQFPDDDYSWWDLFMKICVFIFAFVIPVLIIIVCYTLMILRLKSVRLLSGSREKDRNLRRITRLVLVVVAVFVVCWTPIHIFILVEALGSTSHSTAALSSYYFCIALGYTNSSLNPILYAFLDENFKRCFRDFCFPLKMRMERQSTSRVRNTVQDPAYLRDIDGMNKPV

Turning to `Cc1cc(-c2ccccc2)nnc1NCCN1CCOCC1` [MINAPRINE], the AC50 (as a rule, the midpoint of the concentration-response curve, whichever way the signal moves) in data set [1] is above 10 µM; in [2], above 30 µM; in [3] it was above 10 µM; in [4] (read-out: AC50), 3.44 µM; in data set [5], above 10 µM; in data set [6], above 10 µM. For the same molecule, the AC50 is above 30 µM in [7]; above 10 µM in data set [8]; above 10 µM in data set [9]; above 30 µM in data set [10]; above 10 µM in data set [11]; above 10 µM in data set [12].
As to `CC(=O)NS(=O)(=O)c1ccc(N)cc1` [SULFACETAMIDE], the AC50 was above 10 µM in data set [1]; above 30 µM in [2]; above 10 µM in [3]; above 30 µM in data set [4] (read-out: AC50); above 10 µM in data set [5]; above 10 µM in data set [6]. Moreover, the AC50 in [7] is above 30 µM; in data set [8], above 10 µM; in [9], above 10 µM; in [10], above 10 µM; in data set [11], above 10 µM; in data set [12], above 10 µM.
With `CN1CCN(C(=O)OC2c3nccnc3C(=O)N2c2ccc(Cl)cn2)CC1` (configuration not stated) [ZOPICLONE], the AC50 was above 10 µM in data set [1]; above 10 µM in [2]; above 10 µM in data set [3]; above 30 µM in data set [4] (read-out: AC50); above 30 µM in data set [5]; above 30 µM in data set [6]. The half-maximal activity concentration (AC50) in [7] is above 10 µM; in data set [8] it was above 10 µM; in data set [9], above 30 µM; in data set [10], above 30 µM; in data set [11] it was above 30 µM; in data set [12], above 30 µM.
For `Nc1ncnc2c1ncn2[C@@H]1O[C@H](COP(=O)(O)O)[C@@H](O)[C@H]1O` [ADENOSINE PHOSPHATE], the AC50 in data set [1] is above 30 µM; in data set [2], above 30 µM; in data set [3], above 30 µM; in data set [4] (read-out: AC50), 15 µM; in data set [5], above 30 µM; in data set [6], above 30 µM. Besides, the AC50 in data set [7], in data set [8], in [9], in data set [10], in data set [11] and in data set [12] was above 30 µM throughout.
`CN1C(=O)CC(c2ccccc2)C1=O` (configuration not stated) [PHENSUXIMIDE]: the AC50 in data set [1] is above 10 µM; in [2], above 30 µM; in data set [3], above 10 µM; in [4] (read-out: AC50), above 30 µM; in data set [5], above 10 µM; in [6] it was above 10 µM. For the same molecule, the AC50 in [7] was above 30 µM; in data set [8], above 10 µM; in data set [9] it was above 10 µM; in [10], above 10 µM; in [11], above 10 µM; in data set [12], above 10 µM.
On to TOCOFERSOLAN, for which the AC50 is above 30 µM in data set [1]; above 30 µM in data set [2]; above 30 µM in data set [3]; above 30 µM in [4] (human, cellular components); above 30 µM in data set [5]; above 30 µM in data set [6]. Moreover, the AC50 in data set [7], in data set [8], in [9], in data set [10], in data set [11] and in [12] was above 30 µM each time.
Take `CC(Cc1ccccc1)NCCC(c1ccccc1)c1ccccc1` (configuration not stated) [PRENYLAMINE]: the AC50 is 0.382 µM in data set [1]; above 30 µM in data set [2]; above 10 µM in [3]; 0.736 µM in data set [4] (read-out: AC50); 2.3 µM in data set [5]; 4.7 µM in data set [6]. In addition, the AC50 in data set [7] is above 30 µM; in data set [8] it was above 10 µM; in data set [9], above 10 µM; in [10] it was above 30 µM; in data set [11] it was above 10 µM; in [12] it was above 30 µM.
On to `O=C(OCCN1CCOCC1)c1cccnc1Nc1cccc(C(F)(F)F)c1` [MORNIFLUMATE], for which the half-maximal activity concentration (AC50) in data set [1] is 24 µM; in data set [2] it was above 30 µM; in [3] it was above 30 µM; in data set [4] (read-out: AC50), 4.35 µM; in [5], above 30 µM; in [6] it was 12 µM. For the same molecule, the AC50 in data set [7], in [8], in data set [9], in data set [10], in data set [11] and in data set [12] was above 30 µM each time.
Consider `C[C@H]1C[C@@H]2[C@H]([C@@H](O)C[C@@]3(C)[C@H]2CC[C@]3(O)C(=O)COC(=O)CCC(=O)O)[C@@]2(C)C=CC(=O)C=C12` [METHYLPREDNISOLONE HEMISUCCINATE], for which the AC50 in [1], in data set [2], in [3], in data set [4] (read-out: AC50), in data set [5] and in data set [6] was above 30 µM throughout. Besides, the AC50 in [7], in data set [8], in data set [9], in [10], in data set [11] and in [12] was above 30 µM throughout.
In the case of `NC(CO)C(=O)NNCc1ccc(O)c(O)c1O` (configuration not stated) [BENSERAZIDE], the AC50 is above 10 µM in data set [1]; 30 µM in data set [2]; above 10 µM in [3]; above 30 µM in data set [4] (read-out: AC50); above 10 µM in data set [5]; above 30 µM in data set [6]. Also, the AC50 in data set [7] is above 30 µM; in data set [8], above 10 µM; in [9], above 10 µM; in data set [10] it was 5.67 µM; in data set [11], above 10 µM; in data set [12], above 30 µM.
As for `C1COC(NC(C2CC2)C2CC2)=N1` [RILMENIDINE], the AC50 in data set [1] was 1.72 µM; in data set [2] it was above 30 µM; in [3], above 10 µM; in data set [4] (read-out: AC50) it was above 30 µM; in data set [5], 6.8 µM; in data set [6] it was above 30 µM. For the same molecule, the AC50 in [7] was above 30 µM; in data set [8], above 10 µM; in [9], above 10 µM; in data set [10] it was above 30 µM; in [11] it was above 10 µM; in data set [12], above 30 µM.

The values above are taken from ChEMBL document CHEMBL5291721, “A preclinical secondary pharmacology resource illuminates target-adverse drug reaction associations of marketed drugs” (Nat Commun, 2023).
